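Interpolation was linear, between the two tested concentrations surrounding the appropriate level; five concentrations were tested over 48 hours in 96-well plates. GI50: concentration for 50% inhibition of growth.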 Active and inactive are the calls of the source. No stated cut-off is given here; in the data, active = GI50 up to about 1.1 µM and inactive = higher.
How the values were obtained:
Experiment in all cases: inhibition of tumour cell growth, NCI panel, 48 h
786-0 = system: 786-0
A498 = system: A498
A549 = system: A549
ACHN = system: ACHN
BT-549 = system: BT-549
CAKI-1 = system: CAKI-1
CCRF-CEM = system: CCRF-CEM
COLO 205 = system: COLO 205
DU-145 = system: DU-145
HCC 2998 = system: HCC 2998
HCT-116 = system: HCT-116
HCT-15 = system: HCT-15
HL-60 = system: HL-60
HOP-62 = system: HOP-62
HOP-92 = system: HOP-92
HT-29 = system: HT-29
Hs-578T = system: Hs-578T
IGROV-1 = system: IGROV-1
K562 = system: K562
LOX IMVI = system: LOX IMVI
M14 = system: M14
MCF7 = system: MCF7
MDA-MB-231 = system: MDA-MB-231
MDA-MB-435 = system: MDA-MB-435
MDA-N = system: MDA-N
Malme-3M = system: Malme-3M
NCI-H226 = system: NCI-H226
NCI-H23 = system: NCI-H23
NCI-H460 = system: NCI-H460
NCI-H522 = system: NCI-H522
NCI/ADR-RES = system: NCI/ADR-RES
OVCAR-3 = system: OVCAR-3
OVCAR-4 = system: OVCAR-4
OVCAR-5 = system: OVCAR-5
OVCAR-8 = system: OVCAR-8
PC-3 = system: PC-3
RXF 393 = system: RXF 393
SF-268 = system: SF-268
SF-295 = system: SF-295
SF-539 = system: SF-539
SK-MEL-28 = system: SK-MEL-28
SK-MEL-2 = system: SK-MEL-2
SK-MEL-5 = system: SK-MEL-5
SK-OV-3 = system: SK-OV-3
SN12C = system: SN12C
SNB-19 = system: SNB-19
SNB-75 = system: SNB-75
SW-620 = system: SW-620
TK-10 = system: TK-10
U-251 = system: U-251
UACC-257 = system: UACC-257
UACC-62 = system: UACC-62
UO-31 = system: UO-31
EKVX = system: EKVX
KM12 = system: KM12
MOLT-4 = system: MOLT-4
RPMI-8226 = system: RPMI-8226
T47D = system: T47D
SR = system: SR

With `COc1ccc(CCN2CCc3c(C)c(C#N)c4nc5ccccc5n4c32)cc1OC` the GI50 (786-0) was 56.8 µM (inactive), the GI50 (A498) was 54.6 µM (inactive) and the GI50 (A549) was 45.9 µM (inactive). For the same compound, the GI50 (ACHN) was 64.6 µM (inactive), the GI50 (BT-549) was 27.2 µM (inactive) and the GI50 (CAKI-1) was > 100 µM (inactive). The GI50 (CCRF-CEM) was 35.4 µM (inactive), the GI50 (COLO 205) was 30.3 µM (inactive) and the GI50 (DU-145) was 81.7 µM (inactive). The GI50 (HCC 2998) was 40.7 µM (inactive), the GI50 (HCT-116) was 28.7 µM (inactive) and the GI50 (HCT-15) was 29 µM. For the same compound, the GI50 (HL-60) was 33.9 µM (inactive), the GI50 (HOP-62) was 33.7 µM (inactive) and the GI50 (HOP-92) was 22.8 µM (inactive). For the same compound, the GI50 (HT-29) was 32.6 µM (inactive), the GI50 (Hs-578T) was 12.9 µM (inactive) and the GI50 (IGROV-1) was 37.2 µM (inactive). For the same compound, the GI50 (K562) was 15.6 µM (inactive), the GI50 (LOX IMVI) was 37.7 µM (inactive) and the GI50 (M14) was > 100 µM (inactive). The GI50 (MCF7) was 18 µM (inactive), the GI50 (MDA-MB-231) was 19.1 µM (inactive) and the GI50 (MDA-MB-435) was 14.3 µM (inactive). For the same compound, the GI50 (MDA-N) was 19.1 µM (inactive), the GI50 (Malme-3M) was 28.7 µM (inactive) and the GI50 (NCI-H226) was 27.5 µM (inactive). For the same compound, the GI50 (NCI-H23) was 45.3 µM (inactive), the GI50 (NCI-H460) was 20.2 µM (inactive) and the GI50 (NCI-H522) was 21.4 µM (inactive). The GI50 (NCI/ADR-RES) was 27.4 µM (inactive), the GI50 (OVCAR-3) was 27.2 µM (inactive) and the GI50 (OVCAR-4) was 26 µM (inactive). The GI50 (OVCAR-5) was > 100 µM (inactive), the GI50 (OVCAR-8) was 35.3 µM (inactive) and the GI50 (PC-3) was 25.9 µM (inactive). For the same compound, the GI50 (RXF 393) was 30.8 µM (inactive), the GI50 (SF-268) was 35.1 µM (inactive) and the GI50 (SF-295) was 42.4 µM (inactive). The GI50 (SF-539) was 49.9 µM (inactive), the GI50 (SK-MEL-28) was 39.5 µM (inactive) and the GI50 (SK-MEL-2) was 16.3 µM (inactive). For the same compound, the GI50 (SK-MEL-5) was 19.6 µM (inactive), the GI50 (SK-OV-3) was 81.3 µM (inactive) and the GI50 (SN12C) was 34.2 µM (inactive). For the same compound, the GI50 (SNB-19) was > 100 µM (inactive), the GI50 (SNB-75) was 24.8 µM (inactive) and the GI50 (SW-620) was 26.6 µM (inactive). For the same compound, the GI50 (TK-10) was 64.1 µM (inactive), the GI50 (U-251) was 15.6 µM (inactive) and the GI50 (UACC-257) was 33.2 µM (inactive). The GI50 (UACC-62) was 24.2 µM (inactive) and the GI50 (UO-31) was 36.3 µM (inactive).

For `O=C1CNC(=O)/C(=C/c2c[nH]c3ccccc23)N1`, the GI50 (786-0) was > 100 µM (inactive), the GI50 (A498) was > 100 µM (inactive) and the GI50 (A549) was > 100 µM (inactive). The GI50 (ACHN) was > 100 µM (inactive), the GI50 (BT-549) was > 100 µM (inactive) and the GI50 (CAKI-1) was > 100 µM (inactive). The GI50 (DU-145) was > 100 µM (inactive), the GI50 (EKVX) was > 100 µM (inactive) and the GI50 (HCC 2998) was > 100 µM (inactive). For the same compound, the GI50 (HCT-116) was > 100 µM (inactive), the GI50 (HCT-15) was over 100 µM and the GI50 (HL-60) was 36.3 µM (inactive). The GI50 (HOP-62) was > 100 µM (inactive), the GI50 (HOP-92) was > 100 µM (inactive) and the GI50 (HT-29) was > 100 µM (inactive). For the same compound, the GI50 (Hs-578T) was > 100 µM (inactive), the GI50 (IGROV-1) was > 100 µM (inactive) and the GI50 (K562) was > 100 µM (inactive). The GI50 (KM12) was > 100 µM (inactive), the GI50 (LOX IMVI) was > 100 µM (inactive) and the GI50 (M14) was > 100 µM (inactive). The GI50 (MCF7) was > 100 µM (inactive), the GI50 (MDA-MB-435) was > 100 µM (inactive) and the GI50 (MDA-N) was > 100 µM (inactive). For the same compound, the GI50 (MOLT-4) was > 100 µM (inactive), the GI50 (Malme-3M) was > 100 µM (inactive) and the GI50 (NCI-H226) was > 100 µM (inactive). The GI50 (NCI-H23) was > 100 µM (inactive), the GI50 (NCI-H460) was > 100 µM (inactive) and the GI50 (NCI-H522) was 85.3 µM (inactive). The GI50 (NCI/ADR-RES) was > 100 µM (inactive), the GI50 (OVCAR-3) was > 100 µM (inactive) and the GI50 (OVCAR-4) was > 100 µM (inactive). For the same compound, the GI50 (OVCAR-5) was > 100 µM (inactive), the GI50 (OVCAR-8) was > 100 µM (inactive) and the GI50 (PC-3) was > 100 µM (inactive). For the same compound, the GI50 (RPMI-8226) was > 100 µM (inactive), the GI50 (RXF 393) was > 100 µM (inactive) and the GI50 (SF-268) was > 100 µM (inactive). The GI50 (SF-295) was > 100 µM (inactive), the GI50 (SK-MEL-28) was > 100 µM (inactive) and the GI50 (SK-MEL-2) was > 100 µM (inactive). For the same compound, the GI50 (SK-MEL-5) was > 100 µM (inactive), the GI50 (SK-OV-3) was > 100 µM (inactive) and the GI50 (SN12C) was > 100 µM (inactive). For the same compound, the GI50 (SNB-19) was > 100 µM (inactive), the GI50 (SW-620) was > 100 µM (inactive) and the GI50 (T47D) was > 100 µM (inactive). For the same compound, the GI50 (TK-10) was > 100 µM (inactive), the GI50 (UACC-257) was > 100 µM (inactive) and the GI50 (UACC-62) was > 100 µM (inactive). The GI50 (UO-31) was > 100 µM (inactive).

In the case of `CC1(C)C=Cc2c(cc(O)c3c(=O)c4cc(Cl)ccc4[nH]c23)O1`, the GI50 (786-0) is reported as 3.84 µM (inactive), the GI50 (A549) is reported as 3.1 µM (inactive) and the GI50 (ACHN) is reported as 2.42 µM (inactive). For the same compound, the GI50 (BT-549) was 2.63 µM (inactive), the GI50 (CAKI-1) was 3.94 µM (inactive) and the GI50 (CCRF-CEM) was 3.08 µM (inactive). For the same compound, the GI50 (COLO 205) was 4.43 µM (inactive), the GI50 (EKVX) was 0.469 µM (active) and the GI50 (HCC 2998) was 3.62 µM (inactive). The GI50 (HCT-116) was 2.99 µM (inactive), the GI50 (HCT-15) was 3.27 µM and the GI50 (HL-60) was 2.84 µM (inactive). For the same compound, the GI50 (HOP-62) was 4.08 µM (inactive), the GI50 (HOP-92) was 2.52 µM (inactive) and the GI50 (HT-29) was 2.4 µM (inactive). The GI50 (Hs-578T) was 0.161 µM (active), the GI50 (IGROV-1) was 5.31 µM (inactive) and the GI50 (K562) was 1.81 µM (inactive). The GI50 (KM12) was 2.2 µM (inactive), the GI50 (LOX IMVI) was 3.29 µM (inactive) and the GI50 (MCF7) was 2.88 µM (inactive). For the same compound, the GI50 (MDA-MB-231) was 3.33 µM (inactive), the GI50 (MDA-MB-435) was 3.35 µM (inactive) and the GI50 (MDA-N) was 2.62 µM (inactive). The GI50 (MOLT-4) was 2.54 µM (inactive), the GI50 (Malme-3M) was 2.24 µM (inactive) and the GI50 (NCI-H23) was 2.3 µM (inactive). For the same compound, the GI50 (NCI-H460) was 1.98 µM (inactive), the GI50 (NCI-H522) was 3.29 µM (inactive) and the GI50 (NCI/ADR-RES) was 1.68 µM (inactive). The GI50 (OVCAR-3) was 0.469 µM (active), the GI50 (OVCAR-4) was 3.24 µM (inactive) and the GI50 (OVCAR-5) was 1.91 µM (inactive). For the same compound, the GI50 (OVCAR-8) was 3.98 µM (inactive), the GI50 (PC-3) was 2.04 µM (inactive) and the GI50 (RPMI-8226) was 2.29 µM (inactive). The GI50 (RXF 393) was 3.89 µM (inactive), the GI50 (SF-268) was 3.86 µM (inactive) and the GI50 (SF-295) was 2.84 µM (inactive). The GI50 (SF-539) was 4.13 µM (inactive), the GI50 (SK-MEL-28) was 4 µM (inactive) and the GI50 (SK-MEL-2) was 2.69 µM (inactive). For the same compound, the GI50 (SK-MEL-5) was 1.92 µM (inactive), the GI50 (SK-OV-3) was 2.72 µM (inactive) and the GI50 (SN12C) was 3.24 µM (inactive). For the same compound, the GI50 (SNB-19) was 2.62 µM (inactive), the GI50 (SNB-75) was 4.03 µM (inactive) and the GI50 (SR) was 3.24 µM (inactive). For the same compound, the GI50 (SW-620) was 3.55 µM (inactive), the GI50 (T47D) was 3.69 µM (inactive) and the GI50 (TK-10) was 4.5 µM (inactive). For the same compound, the GI50 (U-251) was 2.74 µM (inactive), the GI50 (UACC-257) was 2.87 µM (inactive) and the GI50 (UACC-62) was 2.58 µM (inactive). The GI50 (UO-31) was 2.16 µM (inactive).
